Experiment [1] has as its target A/England/195/2009 (H1N1), M2/S31 (Influenza A virus, UniProt C3W5Z0, N31S). Type of experiment: cell-based.
For experiment [2], the system named is A/Victoria/3/75 (H3N2, M2 WT). Kind of experiment: microbe, parasite or virus in culture. Type of experiment: cell-based, influenza A.
The target of experiment [3] is S31N M2 transmembrane domain (residues 22–46) (Influenza A virus, UniProt P0DOF5, S31N). The class given is binding, influenza A (A/Udorn/307/72).

Each structure is given as a SMILES string. “Also recorded” adds a separate entry of the source.

Usually EC50 stands for the midpoint of the concentration-response curve. High values mean a less potent agent, low ones a more potent agent. Turning to `NC12CC3CC(CC(C3)C1)C2` [Compound 1, amantadine], the “block of inward proton currents (in words)” value (from here on “block”) in experiment [1] is given as “well blocked”. In experiment [2], the “EC50 ± SE” value was “no detectable activity; also recorded: inactive”. Also, the EC50 in experiment [2] (Influenza A virus, H3N2, MDCK) came out at 3 ± 0.5 µM.
In the case of `NC1C2CC3CC(C2)CC1C3` (stereo not shown) [Compound 3], the “block” value in experiment [1] is on record as “well blocked”.
Consider `CCCC1(N)C2CC3CC(C2)CC1C3` (stereo not shown) [Compound 6, 2-n-Propyltricyclo[3.3.1.1^3,7]decan-2-amine], for which the “block” value in experiment [1] is reported as “well blocked”. For the same compound, in experiment [3], the “decrease of tilt angle of the entire TMD helix” value was 3 ° and the “helix tilt of S31N M2 TMD with drug” value is recorded as about 33 °.
